In US8987293B2, “Morphinans useful as analgesics” (Phoenix Pharmalabs, Inc., priority 2010, dated 2015):

Assays:
human delta receptor [1] = biological target: T1, human delta receptor (Homo sapiens, UniProt P41143); test: [35S]GTP γS binding functional assay, CHO cell membranes; assay type: biochemical
T1 construct: expressed in transfected cells; host or cells: CHO cells

human kappa receptor [2] = biological target: T2, human kappa receptor (Homo sapiens, UniProt P41145); test: Opioid receptor binding affinity, [3H]U69593, CHO cell membranes
T2 construct: expressed in transfected cells; host or cells: CHO cells

human kappa receptor [3] = biological target: T2, human kappa receptor; test: [35S]GTP γS binding functional assay, CHO cell membranes; assay type: biochemical; conditions: 1 hr at 25 C
human delta receptor [4] = biological target: T1, human delta receptor; test: Opioid receptor binding affinity, [3H]Cl-DPDPE, CHO cell membranes

T1 sequence (P41143 whole entry): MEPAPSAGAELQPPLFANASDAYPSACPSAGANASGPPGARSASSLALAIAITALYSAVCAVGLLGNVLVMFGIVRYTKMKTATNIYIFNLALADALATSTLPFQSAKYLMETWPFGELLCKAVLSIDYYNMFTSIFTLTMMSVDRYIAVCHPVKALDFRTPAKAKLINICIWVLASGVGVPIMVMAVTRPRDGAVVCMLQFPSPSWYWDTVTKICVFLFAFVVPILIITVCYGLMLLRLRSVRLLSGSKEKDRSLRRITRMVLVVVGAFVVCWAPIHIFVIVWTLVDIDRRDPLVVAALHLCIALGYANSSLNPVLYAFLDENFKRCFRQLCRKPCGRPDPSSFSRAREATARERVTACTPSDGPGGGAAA
T2 sequence (P41145 whole entry): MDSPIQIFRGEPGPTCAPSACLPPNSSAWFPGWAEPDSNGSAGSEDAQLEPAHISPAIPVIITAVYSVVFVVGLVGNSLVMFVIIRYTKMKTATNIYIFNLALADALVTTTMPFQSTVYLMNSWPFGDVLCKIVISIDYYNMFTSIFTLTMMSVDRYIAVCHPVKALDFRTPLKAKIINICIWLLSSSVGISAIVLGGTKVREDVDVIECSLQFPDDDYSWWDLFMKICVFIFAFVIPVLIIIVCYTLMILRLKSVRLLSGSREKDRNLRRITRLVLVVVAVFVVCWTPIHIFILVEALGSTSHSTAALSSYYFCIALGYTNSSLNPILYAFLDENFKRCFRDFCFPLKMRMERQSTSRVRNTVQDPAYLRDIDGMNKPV

With C[C@H](C1CC1)N1CC[C@]23CCCC[C@H]2[C@H]1Cc1ccc(O)cc13 [Compound 5] the EC50 (human delta receptor [1]) was 9.01 ± 2.6 nM, the “percent stimulation at the delta receptor” value (human delta receptor [1]; [35S]GTP γS, 1 hr at 25 C) was 39.8±3.9% and the Ki (human kappa receptor [2]) was 0.29 ± 0.1 nM. The “percent stimulation at the kappa receptor” value (human kappa receptor [3]) was 41.7±5.0% and the Ki (human delta receptor [4]) was 2.47 ± 0.1 nM.
